Activity calls are given as the source filed them. The rule behind the calls is not given here.
System: CCRIS mutagenicity, Ames/micronucleus/aberration tests
Test: CCRIS mutagenicity studies
[1] = Test System: AMES SALMONELLA TYPHIMURIUM, Strain/Indicator: TA102, Metabolic Activation: NONE, Method: PREINCUBATION

## O=[N+]([O-])c1ccc2c(c1)CCc1c-2ccc2c1CCCC2
Test System: AMES SALMONELLA TYPHIMURIUM, Strain/Indicator: TA98(1,8-DNP6), Metabolic Activation: NONE
  mutagenic call: active; positive
Test System: AMES SALMONELLA TYPHIMURIUM, Strain/Indicator: TA98(1,8-DNP6), Metabolic Activation: RAT, LIVER, S-9, AROCLOR 1254
  mutagenic call: active; positive
Test System: AMES SALMONELLA TYPHIMURIUM, Strain/Indicator: TA98(NR), Metabolic Activation: NONE
  mutagenic call: active; positive
Test System: AMES SALMONELLA TYPHIMURIUM, Strain/Indicator: TA98(NR), Metabolic Activation: RAT, LIVER, S-9, AROCLOR 1254
  mutagenic call: active; positive
Test System: AMES SALMONELLA TYPHIMURIUM, Strain/Indicator: TA98, Metabolic Activation: NONE
  mutagenic call: active; positive
Test System: AMES SALMONELLA TYPHIMURIUM, Strain/Indicator: TA98, Metabolic Activation: RAT, LIVER, S-9, AROCLOR 1254
  mutagenic call: active; positive
Test System: AMES SALMONELLA TYPHIMURIUM, Strain/Indicator: TA100(NR), Metabolic Activation: NONE
  mutagenic call: inactive; negative
Test System: AMES SALMONELLA TYPHIMURIUM, Strain/Indicator: TA100(NR), Metabolic Activation: RAT, LIVER, S-9, AROCLOR 1254
  mutagenic call: active; positive
Test System: AMES SALMONELLA TYPHIMURIUM, Strain/Indicator: TA100, Metabolic Activation: NONE
  mutagenic call: active; positive
Test System: AMES SALMONELLA TYPHIMURIUM, Strain/Indicator: TA100, Metabolic Activation: RAT, LIVER, S-9, AROCLOR 1254
  mutagenic call: active; positive
Test System: AMES SALMONELLA TYPHIMURIUM, Strain/Indicator: TA104, Metabolic Activation: NONE
  mutagenic call: active; positive
Test System: AMES SALMONELLA TYPHIMURIUM, Strain/Indicator: TA104, Metabolic Activation: RAT, LIVER, S-9, AROCLOR 1254
  mutagenic call: active; positive

## CCCCCCCCCCCCCCCC(=O)OCC1(O)CC23CC[C@@H]4c5ccoc5C=CC4(C)C2CCC1C3 (stereo partly specified)
Test System: AMES SALMONELLA TYPHIMURIUM, Strain/Indicator: TM677, Metabolic Activation: NONE, Method: PREINCUBATION
  mutagenic call: inactive; negative
Test System: AMES SALMONELLA TYPHIMURIUM, Strain/Indicator: TM677, Metabolic Activation: RAT, LIVER, S-9, AROCLOR 1254, Method: PREINCUBATION
  mutagenic call: inactive; negative

## O=C(O)CC(O)C(=O)O (stereo unspecified)
Test System: AMES SALMONELLA TYPHIMURIUM, Strain/Indicator: TA97, Metabolic Activation: NONE, Method: PREINCUBATION
  mutagenic call: inactive; negative
Test System: AMES SALMONELLA TYPHIMURIUM, Strain/Indicator: TA97, Metabolic Activation: NONE, Method: STANDARD PLATE
  mutagenic call: inactive; negative
Test System: AMES SALMONELLA TYPHIMURIUM, Strain/Indicator: TA97, Metabolic Activation: RAT, LIVER, S-9, AROCLOR 1254, Method: PREINCUBATION
  mutagenic call: inactive; negative
Test System: AMES SALMONELLA TYPHIMURIUM, Strain/Indicator: TA97, Metabolic Activation: RAT, LIVER, S-9, PHENOBARBITAL, Method: STANDARD PLATE
  mutagenic call: inactive; negative
Test System: AMES SALMONELLA TYPHIMURIUM, Strain/Indicator: TA98, Metabolic Activation: NONE, Method: STANDARD PLATE
  mutagenic call: inactive; negative
Test System: AMES SALMONELLA TYPHIMURIUM, Strain/Indicator: TA98, Metabolic Activation: RAT, LIVER, S-9, PHENOBARBITAL, Method: STANDARD PLATE
  mutagenic call: inactive; negative
Test System: AMES SALMONELLA TYPHIMURIUM, Strain/Indicator: TA100, Metabolic Activation: NONE, Method: STANDARD PLATE
  mutagenic call: inactive; negative
Test System: AMES SALMONELLA TYPHIMURIUM, Strain/Indicator: TA100, Metabolic Activation: RAT, LIVER, S-9, PHENOBARBITAL, Method: STANDARD PLATE
  mutagenic call: inactive; negative
[1]
  mutagenic call: inactive; negative
Test System: AMES SALMONELLA TYPHIMURIUM, Strain/Indicator: TA102, Metabolic Activation: RAT, LIVER, S-9, AROCLOR 1254, Method: PREINCUBATION
  mutagenic call: inactive; negative
Test System: AMES SALMONELLA TYPHIMURIUM, Strain/Indicator: TA104, Metabolic Activation: NONE, Method: STANDARD PLATE
  mutagenic call: inactive; negative
Test System: AMES SALMONELLA TYPHIMURIUM, Strain/Indicator: TA104, Metabolic Activation: RAT, LIVER, S-9, PHENOBARBITAL, Method: STANDARD PLATE
  mutagenic call: inactive; negative

## Cc1cccc(O)c1
End Point: IN VITRO CHROMOSOMAL ABERRATIONS, Test System: SYRIAN HAMSTER EMBRYO (SHE) CELLS, Metabolic Activation: NONE
  mutagenic call: active; positive (structural changes)
End Point: IN VITRO CHROMOSOMAL ABERRATIONS, Test System: SYRIAN HAMSTER EMBRYO (SHE) CELLS, Metabolic Activation: RAT, LIVER, S-9
  mutagenic call: active; positive (structural changes)
Test System: AMES SALMONELLA TYPHIMURIUM, Strain/Indicator: TA98, Metabolic Activation: NONE, Method: PREINCUBATION
  mutagenic call: inactive; negative
Test System: AMES SALMONELLA TYPHIMURIUM, Strain/Indicator: TA98, Metabolic Activation: RAT, LIVER, S-9, SODIUM PHENOBARBITAL AND 5,6-BENZOFLAVONE, Method: PREINCUBATION
  mutagenic call: inactive; negative
Test System: AMES SALMONELLA TYPHIMURIUM, Strain/Indicator: TA100, Metabolic Activation: NONE, Method: PREINCUBATION
  mutagenic call: inactive; negative
Test System: AMES SALMONELLA TYPHIMURIUM, Strain/Indicator: TA100, Metabolic Activation: RAT, LIVER, S-9, SODIUM PHENOBARBITAL AND 5,6-BENZOFLAVONE, Method: PREINCUBATION
  mutagenic call: inactive; negative
[1]
  mutagenic call: inactive; negative
Test System: AMES SALMONELLA TYPHIMURIUM, Strain/Indicator: TA102, Metabolic Activation: RAT, LIVER, S-9, SODIUM PHENOBARBITAL AND 5,6-BENZOFLAVONE, Method: PREINCUBATION
  mutagenic call: inactive; negative
Test System: AMES SALMONELLA TYPHIMURIUM, Strain/Indicator: TA104, Metabolic Activation: NONE, Method: PREINCUBATION
  mutagenic call: inactive; negative
Test System: AMES SALMONELLA TYPHIMURIUM, Strain/Indicator: TA104, Metabolic Activation: RAT, LIVER, S-9, SODIUM PHENOBARBITAL AND 5,6-BENZOFLAVONE, Method: PREINCUBATION
  mutagenic call: inactive; negative
Test System: AMES SALMONELLA TYPHIMURIUM, Strain/Indicator: TA1535, Metabolic Activation: NONE, Method: PREINCUBATION
  mutagenic call: inactive; negative
Test System: AMES SALMONELLA TYPHIMURIUM, Strain/Indicator: TA1535, Metabolic Activation: RAT, LIVER, S-9, SODIUM PHENOBARBITAL AND 5,6-BENZOFLAVONE, Method: PREINCUBATION
  mutagenic call: inactive; negative
Test System: AMES SALMONELLA TYPHIMURIUM, Strain/Indicator: TA1537, Metabolic Activation: NONE, Method: PREINCUBATION
  mutagenic call: inactive; negative
Test System: AMES SALMONELLA TYPHIMURIUM, Strain/Indicator: TA1537, Metabolic Activation: RAT, LIVER, S-9, SODIUM PHENOBARBITAL AND 5,6-BENZOFLAVONE, Method: PREINCUBATION
  mutagenic call: inactive; negative
Test System: Ames Salmonella typhimurium, Strain/Indicator: TA98, Metabolic Activation: Hamster, Liver, S-9, Aroclor 1254 (10%), Method: Preincubation
  mutagenic call: inactive; negative
Test System: Ames Salmonella typhimurium, Strain/Indicator: TA98, Metabolic Activation: None, Method: Preincubation
  mutagenic call: inactive; negative
Test System: Ames Salmonella typhimurium, Strain/Indicator: TA98, Metabolic Activation: Rat, Liver, S-9, Aroclor 1254 (10%), Method: Preincubation
  mutagenic call: inactive; negative
Test System: Ames Salmonella typhimurium, Strain/Indicator: TA100, Metabolic Activation: Hamster, Liver, S-9, Aroclor 1254 (10%), Method: Preincubation
  mutagenic call: inactive; negative
Test System: Ames Salmonella typhimurium, Strain/Indicator: TA100, Metabolic Activation: None, Method: Preincubation
  mutagenic call: inactive; negative
Test System: Ames Salmonella typhimurium, Strain/Indicator: TA100, Metabolic Activation: Rat, Liver, S-9, Aroclor 1254 (10%), Method: Preincubation
  mutagenic call: inactive; negative
Test System: Ames Salmonella typhimurium, Strain/Indicator: TA1535, Metabolic Activation: Hamster, Liver, S-9, Aroclor 1254 (10%), Method: Preincubation
  mutagenic call: inactive; negative
Test System: Ames Salmonella typhimurium, Strain/Indicator: TA1535, Metabolic Activation: None, Method: Preincubation
  mutagenic call: inactive; negative
Test System: Ames Salmonella typhimurium, Strain/Indicator: TA1535, Metabolic Activation: Rat, Liver, S-9, Aroclor 1254 (10%), Method: Preincubation
  mutagenic call: inactive; negative
Test System: Ames Salmonella typhimurium, Strain/Indicator: TA1537, Metabolic Activation: Hamster, Liver, S-9, Aroclor 1254 (10%), Method: Preincubation
  mutagenic call: inactive; negative
Test System: Ames Salmonella typhimurium, Strain/Indicator: TA1537, Metabolic Activation: None, Method: Preincubation
  mutagenic call: inactive; negative
Test System: Ames Salmonella typhimurium, Strain/Indicator: TA1537, Metabolic Activation: Rat, Liver, S-9, Aroclor 1254 (10%), Method: Preincubation
  mutagenic call: inactive; negative
Test System: E. COLI, Strain/Indicator: WP2UVRA/PKM101, Metabolic Activation: NONE, Method: PREINCUBATION
  mutagenic call: inactive; negative
Test System: E. COLI, Strain/Indicator: WP2UVRA/PKM101, Metabolic Activation: RAT, LIVER, S-9, PHENOBARBITAL AND BETA-NAPHTHOFLAVONE, Method: PREINCUBATION
  mutagenic call: inactive; negative
Test System: E. COLI, Strain/Indicator: WP2UVRA, Metabolic Activation: NONE, Method: PREINCUBATION
  mutagenic call: inactive; negative
Test System: E. COLI, Strain/Indicator: WP2UVRA, Metabolic Activation: RAT, LIVER, S-9, PHENOBARBITAL AND BETA-NAPHTHOFLAVONE, Method: PREINCUBATION
  mutagenic call: inactive; negative

— PubChem BioAssay AID1259407 (Chemical Carcinogenesis Research Information System (CCRIS), 2018)
